Data published in ChEMBL document CHEMBL1649173, “Single-dose escalation and multiple-dose safety, tolerability, and pharmacokinetics of IDX899, a candidate human immunodeficiency virus type 1 nonnucleoside reverse transcriptase inhibitor, in healthy subjects” (Antimicrob Agents Chemother, 2009).

Key:
Homo sapiens [1] = experiment: Toxicity in healthy human assessed as occurrence of pollakiuria at 50 to 1200 mg, po administered as single dose; assay type: organism-based; settings: in vivo
[2] = Tmax in healthy human at 800 mg, po qd after 7 days; assay type: ADME, organism-based; settings: in vivo
[3] = Cmax in fed state healthy human at 200 mg, po administered as single dose; assay type: ADME, organism-based; design: dose 200 mg, route oral; settings: in vivo
[4] = Plasma concentration in fasted state healthy human at 400 mg, po administered as single dose after 24 hrs; assay type: ADME, organism-based
[5] = Cmax in fed state healthy human at 800 mg, po administered as single dose; assay type: ADME, organism-based; design: dose 800 mg, route oral; settings: in vivo
[6] = Half life in fasted state healthy human at 100 mg, po administered as single dose; assay type: ADME, organism-based; settings: in vivo
[7] = Apparent total volume of distribution in fasted state healthy human at 200 mg, po administered as single dose; assay type: ADME, organism-based; settings: in vivo, read-out: Vz/F
[8] = Plasma concentration in fasted state healthy human at 50 mg, po administered as single dose after 24 hrs; assay type: ADME, organism-based
[9] = Apparent total plasma clearance in healthy human at 800 mg, po qd after 1 day; assay type: ADME, organism-based
[10] = Cmax in fed state healthy human at 1200 mg, po administered as single dose; assay type: ADME, organism-based; design: dose 1200 mg, route oral; settings: in vivo
[11] = Half life in fed state healthy human at 200 mg, po administered as single dose; assay type: ADME, organism-based; settings: in vivo
[12] = AUC (0 to infinity) in healthy human at 400 mg, po bid after 7 days; assay type: ADME, organism-based; design: dose 400 mg, route oral, time infinity; settings: plasma
[13] = AUC (0 to infinity) in fasted state healthy human at 400 mg, po administered as single dose; assay type: ADME, organism-based; design: dose 400 mg, time infinity, route oral; settings: plasma
[14] = Plasma concentration in fasted state healthy human at 200 mg, po administered as single dose after 24 hrs; assay type: ADME, organism-based
[15] = Tmax in healthy human at 400 mg, po bid after 1 day; assay type: ADME, organism-based; settings: in vivo
[16] = Plasma concentration in fed state healthy human at 400 mg, po administered as single dose after 24 hrs; assay type: ADME, organism-based
Homo sapiens [17] = organism: Homo sapiens; experiment: Protein binding in human; assay type: ADME, organism-based; settings: in vivo
[18] = Tmax in fed state healthy human at 400 mg, po administered as single dose; assay type: ADME, organism-based; settings: in vivo
[19] = Half life in fed state healthy human at 800 mg, po administered as single dose; assay type: ADME, organism-based; settings: in vivo
[20] = Plasma concentration in fed state healthy human at 1200 mg, po administered as single dose after 24 hrs; assay type: ADME, organism-based
[21] = Plasma concentration in fed state healthy human at 200 mg, po administered as single dose after 24 hrs; assay type: ADME, organism-based
[22] = Cmax in healthy human at 400 mg, po bid after 1 day; assay type: ADME, organism-based; design: dose 400 mg, route oral; settings: in vivo
Homo sapiens [23] = experiment: Toxicity in healthy human assessed as incidence of pollakiuria at 400 mg, po bid and 800 mg, po qd for 7 days; assay type: organism-based; settings: in vivo, 168 h
[24] = Half life in fed state healthy human at 400 mg, po administered as single dose; assay type: ADME, organism-based; settings: in vivo
[25] = Cmax in healthy human at 400 mg, po bid after 7 days; assay type: ADME, organism-based; design: dose 400 mg, route oral; settings: in vivo
[26] = Half life in healthy human at 400 mg, po bid after 7 days; assay type: ADME, organism-based; settings: in vivo
[27] = Apparent total plasma clearance in healthy human at 400 mg, po bid after 7 days; assay type: ADME, organism-based
[28] = Apparent total plasma clearance in fasted state healthy human at 50 mg, po administered as single dose; assay type: ADME, organism-based
[29] = Tmax in healthy human at 400 mg, po bid after 7 days; assay type: ADME, organism-based; settings: in vivo
[30] = AUC (0 to infinity) in fed state healthy human at 1200 mg, po administered as single dose; assay type: ADME, organism-based; design: dose 1200 mg, route oral, time infinity; settings: plasma
[31] = Oral bioavailability in human; assay type: ADME, organism-based; settings: in vivo
[32] = system: Human immunodeficiency virus 1; experiment: Antiviral activity against HIV1; assay type: functional, organism-based
Homo sapiens [33] = experiment: Toxicity in healthy human assessed as occurrence of head ache at 50 to 1200 mg, po administered as single dose; assay type: organism-based; settings: in vivo
[34] = Tmax in fed state healthy human at 1200 mg, po administered as single dose; assay type: ADME, organism-based; settings: in vivo
[35] = AUC (0 to infinity) in healthy human at 800 mg, po qd after 7 days; assay type: ADME, organism-based; design: dose 800 mg, route oral, time infinity; settings: plasma
[36] = Tmax in healthy human at 800 mg, po qd after 1 day; assay type: ADME, organism-based; settings: in vivo
[37] = Cmax in healthy human at 800 mg, po qd after 1 day; assay type: ADME, organism-based; design: dose 800 mg, route oral; settings: in vivo
Homo sapiens [38] = experiment: Toxicity in healthy human assessed as incidence of nausea at 400 mg, po bid and 800 mg, po qd for 7 days; assay type: organism-based; settings: in vivo, 168 h
Homo sapiens [39] = experiment: Toxicity in healthy human assessed as occurrence of abnormal dreams at 50 to 1200 mg, po administered as single dose; assay type: organism-based; settings: in vivo
[40] = Apparent total plasma clearance in fed state healthy human at 1200 mg, po administered as single dose 0; assay type: ADME, organism-based
[41] = Apparent total volume of distribution in fed state healthy human at 400 mg, po administered as single dose; assay type: ADME, organism-based; settings: in vivo, read-out: Vz/F
[42] = Trough plasma concentration in healthy human at 400 mg, po bid after 1 day; assay type: ADME, organism-based; settings: read-out: Cmin
[43] = Apparent total plasma clearance in healthy human at 800 mg, po qd after 7 days; assay type: ADME, organism-based
[44] = Cmax in fed state healthy human at 400 mg, po administered as single dose; assay type: ADME, organism-based; design: dose 400 mg, route oral; settings: in vivo
[45] = Half life in healthy human at 800 mg, po qd after 7 days; assay type: ADME, organism-based; settings: in vivo
[46] = Cmax in fasted state healthy human at 200 mg, po administered as single dose; assay type: ADME, organism-based; design: dose 200 mg, route oral; settings: in vivo
[47] = Apparent total plasma clearance in fed state healthy human at 400 mg, po administered as single dose; assay type: ADME, organism-based
[48] = Half life in fasted state healthy human at 400 mg, po administered as single dose; assay type: ADME, organism-based; settings: in vivo
[49] = Apparent total volume of distribution in fed state healthy human at 800 mg, po administered as single dose; assay type: ADME, organism-based; settings: in vivo, read-out: Vz/F
[50] = Half life in fasted state healthy human at 200 mg, po administered as single dose; assay type: ADME, organism-based; settings: in vivo
[51] = Apparent total volume of distribution in fed state healthy human at 1200 mg, po administered as single dose; assay type: ADME, organism-based; settings: in vivo, read-out: Vz/F

COP(=O)(c1cc(C)cc(/C=C/C#N)c1)c1c(C(N)=O)[nH]c2ccc(Cl)cc12 (stereo unspecified)
Activity (Homo sapiens [1]): 0% | Tmax [2]: 4 h | Cmax [3]: 1300 ng/mL | concentration at 24 h [4]: 160 ng/mL | Cmax [5]: 3000 ng/mL | half-life [6]: 6.8 h | Vd/F [7]: 555 L | concentration at 24 h [8]: 50 ng/mL | CL/F [9]: 252 mL/min | Cmax [10]: 5600 ng/mL | half-life [11]: 9.5 h | AUC(0-inf) [12]: 35200 ng·h/mL | AUC(0-inf) [13]: 14700 ng·h/mL | concentration at 24 h [14]: 70 ng/mL | Tmax [15]: 4 h | concentration at 24 h [16]: 360 ng/mL | Activity (Homo sapiens [17]): > 99.8% | Tmax [18]: 7 h | half-life [19]: 11.5 h | concentration at 24 h [20]: 2020 ng/mL | concentration at 24 h [21]: 190 ng/mL | Cmax [22]: 2000 ng/mL | Activity (Homo sapiens [23]): 12.5% | half-life [24]: 9.8 h | Cmax [25]: 4000 ng/mL | half-life [26]: 12.3 h | CL/F [27]: 268 mL/min | CL/F [28]: 103 mL/min | Tmax [29]: 4 h | AUC(0-inf) [30]: 106000 ng·h/mL | bioavailability [31]: 61% | IC50 [32]: 1.2 nM | Activity (Homo sapiens [33]): 8.2% | Tmax [34]: 10.1 h | AUC(0-inf) [35]: 54600 ng·h/mL | Tmax [36]: 4 h | Cmax [37]: 4900 ng/mL | Activity (Homo sapiens [38]): 0% | Activity (Homo sapiens [39]): 2% | CL/F [40]: 197 mL/min | Vd/F [41]: 166 L | concentration at 24 h [42]: 800 ng/mL | CL/F [43]: 292 mL/min | Cmax [44]: 2400 ng/mL | half-life [45]: 13.6 h | Cmax [46]: 700 ng/mL | CL/F [47]: 215 mL/min | half-life [48]: 14.6 h | Vd/F [49]: 301 L | half-life [50]: 11.9 h | Vd/F [51]: 134 L
